Experimental findings from US11298367B2, “Prodrugs of substituted triazole derivatives and uses thereof” (Bayer Aktiengesellschaft, priority 2017, dated 2022) are described below.

This experiment concerns vasopressin (AVP) mediated changes of systemic and renal hemodynamics. Put plainly: Acute effects on vasopressin-mediated changes of systemic hemodynamics, renal blood flow and oxygenation in anesthetized rats. Type of experiment: in vivo, rat. Conditions: AVP 50 ng/kg/min + compound 30 μg/kg bolus, mean ± SD, n = 8. On the procedure: B-11. Acute Effects on Vasopressin-Mediated Changes of Systemic Hemodynamics, Renal Blood Flow and Oxygenation in Anesthetized Rats
Experiments are performed on male Sprague Dawley rats (Charles River, Deutschland; 350-450 g body weight). In preparation for surgical procedures rats are anesthetized with isoflurane and placed on a heated table to maintain core body temperature at 37° C., assessed using a rectal thermometer inserted. Inhalation anesthesia with isoflurane is applied using a calibrated vaporizer to induce and maintain anesthesia with 5 vol. % and 2 vol. % isoflurane, respectively. A PE50 cannula is placed in the right arteria femoralis for monitoring mean arterial pressure (MAP). Another PE50 catheter is inserted into the vena femoralis for intravenous infusion. The left kidney is exposed by a flank incision and separated from the perirenal attachments. The kidney capsule remains intact. During surgery and the subsequent equilibration and control periods, the rats receive an intravenous infusion of saline (0.9% NaCl) at rate 100 μL/min. Renal measurements of renal blood flow (RBF) are recorded using a laser Doppler blood flow probe (Oxford Optronix, UK) that is attached and stabilized to the surface of the kidney. The probe is inserted into the renal cortex to a depth of 2 mm and another into the renal medulla at 4 mm. The renal blood flow, oxygen and temperature are measured by combined sensor probe (Oxford Optronix, UK). MAP, heart rate (HR), RBF, temperature and oxygen are continuously recorded. After surgery and equilibration, baseline measurements are determined for 20 minutes. The rats are then intravenously infused with vasopressin atrate 50 ng/kg/min in 100 μL/kg for 20 minutes. In the third period, the effect of combined infusion of vasopressin and adual vasopressin receptor antagonist (Example 82 of WO 2016/071212) or a selective V1a antagonist (Example 1) or vehicle that is applied as a bolus in different concentration is determined.

Consider `NC(=O)c1nc(Cn2nc(-c3ccc(Cl)cc3)n(C[C@H](OP(=O)(O)O)C(F)(F)F)c2=O)nn1-c1ncccc1C(F)(F)F` [Example 1, (2S)-3-[1-({5-Carbamoyl-1-[3-(trifluoromethyl)pyridin-2-yl]-1H-1,2,4-triazol-3-yl}methyl)-3-(4-chlorophenyl)-5-oxo-1,5-dihydro-4H-1,2,4-triazol-4-yl]-1,1,1-trifluoropropan-2-yl Dihydrogen Phosphate], for which the “HR (heart rate)” value turned out to be 276.20 ± 4.46 BPM, the “MAP (mean arterial blood pressure)” value is recorded as 103.50 ± 4.97 mmHg, the “RBF (renal blood flow)” value was 877.00 ± 43.01 U and the “pO2 (partial pressure of renal oxygen)” value is 14.32 ± 1.13 mmHg.
Consider `NC(=O)c1nc(Cn2nc(-c3ccc(Cl)cc3)n(C[C@H](O)C(F)(F)F)c2=O)nn1-c1ncccc1C(F)(F)F` [Example 4A, 3-({3-(4-Chlorophenyl)-5-oxo-4-[(2S)-3,3,3-trifluoro-2-hydroxypropyl]-4,5-dihydro-1H-1,2,4-triazol-1-yl}methyl)-1-[3-(trifluoromethyl)pyridin-2-yl]-1H-1,2,4-triazole-5-carboxamide], for which the “HR (heart rate)” value is listed as 270.50 ± 2.89 BPM, the “MAP (mean arterial blood pressure)” value was 114.80 ± 7.42 mmHg, the “RBF (renal blood flow)” value came to 878.10 ± 96.92 U and the “pO2 (partial pressure of renal oxygen)” value is given as 15.86 ± 4.01 mmHg.
